Read-outs that look alike come from different tables or passages of the source.
Tests used:
CD11a = experiment: Cell surface expression of CD11a in human neutrophils (immunofluorescence flow cytometry); format: cell-based; details: Medium = 100
Description: (§1) Isolation and treatment of neutrophils.
(§2) Monoclonal antibodies. […] The antibodies are commercially available.
(§3) Immunofluorescence flow cytometry. […] Results were expressed as relative MFI (rMFI), such that
(§4) rMFI=(MFIagent×100)/MFImedium
(§5) Background fluorescence was substracted from all values.

[1] = Body weight evaluation in the TNB colitis rat model; format: in vivo; details: Wistar rat, Mean ± SEM
Experimental: The therapeutic potential for the treatment of ulcerative colitis of IEC01 at 2.5 and 5 mg/kg and IES01 at 2.5 mg/kg, was evaluated after their administration by oral route during 14 days (7 days of preventive treatment and 7 days of therapeutic treatment) using the rat model of experimental colitis induced by TNB (2,4,6-trinitrobenzenesulphonic acid). As reference parameters, the body weight, wet colon weight and score macroscopic evaluation were evaluated after 24 hours and after 7 days of the intraluminal administration of TNB in the colon.

CD11b = experiment: Cell surface expression of CD11b in human neutrophils (immunofluorescence flow cytometry); format: cell-based; details: Medium = 100
Description: as §1, §2, §3, §4, §5

HLA = details: human neutrophils, Medium = 100
Experimental: Isolation and treatment of neutrophils. Human neutrophils were obtained from fresh peripheral blood by dextran sedimentation and centrifugation on Ficoll-Hypaque followed by hypotonic lysis of residual erythrocytes. […] Cells were resuspended at 3×10^6 neutrophils/ml in HEPES/glucose buffer (150 mM NaCl, 5 mM KCl, 10 mM HEPES, 1.2 mM MgCl2, 1.3 mM CaCl2, 5.5 mM glucose, pH 7.5), and incubated in the absence or presence of distinct agents at 37° C. for the times indicated in the respective legends to figures. Subsequently, cells were pelleted by centrifugation and saved to determine the content of different cell surface antigens by flow cytometry.
Monoclonal antibodies. The following monoclonal antibodies were used: TS1/11 anti-CD11a, Bear-1 anti-CD11b, TP1/36.1 anti-CD43, HP2/9 anti-CD44, Leu-8 anti-L-selectin, and W6/32, specific for a monomorphic determinant on HLA-A, B molecules. P3X63 myeloma culture supernatant was used as a negative control. The antibodies are commercially available.
Immunofluorescence flow cytometry. Immunofluorescence flow cytometry analysis was performed in a FACStar-Plus and a FACScan flow cytometers (Becton-Dickinson). Neutrophils were incubated at 4° C. with the corresponding monoclonal antibody followed by washing and labelling with a fluorescein isothiocyanate (FITC)-labelled-goat anti-mouse IgG antibody (DAKO, Glostrup, Denmark). Mean fluorescence intensity (MFI) in linear scale was obtained from at least 7000 cells in each sample, and the fluorescence produced by the myeloma P3X63 supernatant was considered as background. Results were expressed as relative MFI (rMFI), such that
as §4, §5

L-selectin (CD62L) = experiment: Cell surface expression of L-selectin in human neutrophils (immunofluorescence flow cytometry); format: cell-based; details: for L-Selectin cell surface expression (rMFI): Medium = 100
Description: as §1, §2, §3, §4, §5

[2] = test system: Mouse bone marrow derived macrophages; experiment: Superoxide anion generation in macrophages (lucigenin chemoluminescent assay); format: cell-based; details: 1 or 3 μg/ml, 24 h; Zymosan-initiated; versus untreated controls (FIG. 2)
Experimental: Mouse bone marrow derived macrophages were incubated for 24 h at 37° C. in MEM+10% FCS to a concentration of 10^6 cells/ml in the absence or presence of ELPs IES01 and IEC01 at the concentration of 1 or 3 μg/ml. The O2^− free radicals were measured in a chemoluminescent assay that detects the photons generated by the reaction of superoxid anions with lucigenin. The liberated photons are counted with a luminometer Microlumat LB96P, Berthold, Wildbad, Germany. Collected macrophages are resuspended in 0.2 ml at a concentration of 10^6/ml in HEPES buffered medium containing 540 μg/ml lucigenin. Superoxid production is initiated by adding 50 mg of Zymosan and the emission of photons is measured with a luminometer for 2 h.

CCCCCCCCCCCCCCCCCCOCC(COP(=O)([O-])OCC[N+](C)(C)C)OC (centres unmarked) [IEC01, Edelfosine]
CD11a cell surface expression (rMFI) (CD11a; 10 ng/ml): 99 ± 3
CD11a cell surface expression (rMFI) (CD11a; 100 ng/ml): 102 ± 5
CD11a cell surface expression (rMFI) (CD11a; 500 ng/ml): 97 ± 8
CD11a cell surface expression (rMFI) (CD11a; 1 μg/ml): 101 ± 6
CD11a cell surface expression (rMFI) (CD11a; 5 μg/ml): 96 ± 5
Body weight DAY 1 ([1]; 2.5 mg/Kg p.o.): 233.5 ± 3.07 g
Body weight DAY 2 ([1]; 2.5 mg/Kg p.o.): 236.0 ± 3.42 g
Body weight DAY 4 ([1]; 2.5 mg/Kg p.o.): 240.3 ± 3.60 g
Body weight DAY 7 ([1]; 2.5 mg/Kg p.o.): 210.6 ± 3.05 g
Body weight DAY 8 ([1]; 2.5 mg/Kg p.o.): 214.8 ± 3.41 g
Body weight DAY 11 ([1]; 2.5 mg/Kg p.o.): 234.4 ± 4.53 g
Body weight DAY 12 ([1]; 2.5 mg/Kg p.o.): 241.0 ± 4.04 g
Body weight DAY 13 ([1]; 2.5 mg/Kg p.o.): 244.2 ± 4.16 g
Body weight DAY 14 ([1]; 2.5 mg/Kg p.o.): 249.4 ± 4.42 g
Body weight DAY 1 ([1]; 5.0 mg/Kg p.o): 227.4 ± 1.21 g
Body weight DAY 2 ([1]; 5.0 mg/Kg p.o): 229.1 ± 1.05 g
Body weight DAY 4 ([1]; 5.0 mg/Kg p.o): 235.9 ± 1.63 g
Body weight DAY 7 ([1]; 5.0 mg/Kg p.o): 207.4 ± 1.90 g
Body weight DAY 8 ([1]; 5.0 mg/Kg p.o): 216.2 ± 2.56 g
Body weight DAY 11 ([1]; 5.0 mg/Kg p.o): 237.6 ± 3.35 g
Body weight DAY 12 ([1]; 5.0 mg/Kg p.o): 245.2 ± 3.17 g
Body weight DAY 13 ([1]; 5.0 mg/Kg p.o): 250.6 ± 3.31 g
Body weight DAY 14 ([1]; 5.0 mg/Kg p.o): 253.6 ± 5.34 g
CD11b cell surface expression (rMFI) (CD11b; 10 ng/ml, rMFI=(MFIagent×100)/MFImedium): 97.5 ± 8.5
CD11b cell surface expression (rMFI) (CD11b; 100 ng/ml): 101 ± 3
CD11b cell surface expression (rMFI) (CD11b; 500 ng/ml): 103 ± 3
CD11b cell surface expression (rMFI) (CD11b; 1 μg/ml): 105 ± 6
CD11b cell surface expression (rMFI) (CD11b; 5 μg/ml): 130 ± 15
HLA cell surface expression (rMFI) (HLA; 10 ng/ml): 101 ± 5
HLA cell surface expression (rMFI) (HLA; 100 ng/ml): 100 ± 4
HLA cell surface expression (rMFI) (HLA; 500 ng/ml): 99 ± 5
HLA cell surface expression (rMFI) (HLA; 1 μg/ml): 102 ± 6
HLA cell surface expression (rMFI) (HLA; 5 μg/ml): 101 ± 5
times more effective than aceclofenac in promoting L-selectin down-regulation (L-selectin (CD62L); after correcting for the different molecular weights): 100 times
IC50 (L-selectin (CD62L); converted from μg/ml values, read-out: IC50 for L-selectin down-regulation, corrected for molecular weight): 194 nM
concentration at which L-selectin reduction reaches a maximum (L-selectin (CD62L); human neutrophils): 1 µg/mL
IC50 for L-selectin down-regulation (L-selectin (CD62L); human neutrophils (FIG. 1)): about 0.1 μg/ml
time for decrease in cell surface L-selectin content to reach a maximum (L-selectin (CD62L); human neutrophils (data not shown)): ≤ 5 min
L-Selectin cell surface expression (rMFI) (L-selectin (CD62L); human neutrophils, 10 ng/ml): 83.5 ± 4
L-Selectin cell surface expression (rMFI) (L-selectin (CD62L); human neutrophils, 100 ng/ml): 56 ± 6
L-Selectin cell surface expression (rMFI) (L-selectin (CD62L); human neutrophils, 500 ng/ml): 35 ± 5.5
L-Selectin cell surface expression (rMFI) (L-selectin (CD62L); human neutrophils, 1 μg/ml): 18 ± 6
L-Selectin cell surface expression (rMFI) (L-selectin (CD62L); human neutrophils, 5 μg/ml): 22 ± 8
amount of O2− free radicals produced by macrophages (inhibition, in words) [2]: higher

— patent publication US6583127B1, “Use of etherlysophospholipids as antiinflammatory agents” (Inkeysa. SA, priority 1998, dated 2003)
